The target of this assay is T1, Recombinant human Ku heterodimer (Homo sapiens, UniProt P12956+P13010).
T1 construct: made in house; host or cells: insect cells infected with recombinant baculovirus
In words: Ku-DNA binding assay. From the text:
Ku is a DNA end-binding protein that is essential for the repair of DNA double strand breaks via the NHEJ pathway. The mechanism of DNA binding by Ku is via a toroid structure that encircles double-stranded DNA from a terminus.

Setting [1] is: Table 1, purchased second generation inhibitors, several values in a cell = separate determinations, read-out: IC50.
Setting [2] is: Table 2, synthesized derivatives, several values in a cell = separate determinations, read-out: IC50.

“And” between values parts separate entries of the source, which are not always exact repeats. Identical values can stand only once. Like-named read-outs stand apart in the source and are kept apart here.

T1 sequence (P12956 whole entry): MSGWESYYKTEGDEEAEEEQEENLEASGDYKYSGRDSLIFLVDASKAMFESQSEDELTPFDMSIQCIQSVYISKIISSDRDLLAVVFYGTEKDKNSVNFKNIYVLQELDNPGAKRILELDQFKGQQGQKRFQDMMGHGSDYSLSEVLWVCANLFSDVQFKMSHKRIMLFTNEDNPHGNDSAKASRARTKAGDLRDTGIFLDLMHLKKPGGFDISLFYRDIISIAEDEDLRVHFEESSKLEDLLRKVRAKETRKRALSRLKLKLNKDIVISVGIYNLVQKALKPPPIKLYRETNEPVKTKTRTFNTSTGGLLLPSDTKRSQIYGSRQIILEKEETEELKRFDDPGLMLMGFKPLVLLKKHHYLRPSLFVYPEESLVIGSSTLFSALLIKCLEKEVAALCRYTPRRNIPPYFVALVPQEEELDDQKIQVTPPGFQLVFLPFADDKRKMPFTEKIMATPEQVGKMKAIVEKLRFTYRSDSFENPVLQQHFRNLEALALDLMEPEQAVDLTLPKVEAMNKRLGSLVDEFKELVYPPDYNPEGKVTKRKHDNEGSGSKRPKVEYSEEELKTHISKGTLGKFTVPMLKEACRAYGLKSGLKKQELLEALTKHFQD
T1 sequence (P13010 whole entry): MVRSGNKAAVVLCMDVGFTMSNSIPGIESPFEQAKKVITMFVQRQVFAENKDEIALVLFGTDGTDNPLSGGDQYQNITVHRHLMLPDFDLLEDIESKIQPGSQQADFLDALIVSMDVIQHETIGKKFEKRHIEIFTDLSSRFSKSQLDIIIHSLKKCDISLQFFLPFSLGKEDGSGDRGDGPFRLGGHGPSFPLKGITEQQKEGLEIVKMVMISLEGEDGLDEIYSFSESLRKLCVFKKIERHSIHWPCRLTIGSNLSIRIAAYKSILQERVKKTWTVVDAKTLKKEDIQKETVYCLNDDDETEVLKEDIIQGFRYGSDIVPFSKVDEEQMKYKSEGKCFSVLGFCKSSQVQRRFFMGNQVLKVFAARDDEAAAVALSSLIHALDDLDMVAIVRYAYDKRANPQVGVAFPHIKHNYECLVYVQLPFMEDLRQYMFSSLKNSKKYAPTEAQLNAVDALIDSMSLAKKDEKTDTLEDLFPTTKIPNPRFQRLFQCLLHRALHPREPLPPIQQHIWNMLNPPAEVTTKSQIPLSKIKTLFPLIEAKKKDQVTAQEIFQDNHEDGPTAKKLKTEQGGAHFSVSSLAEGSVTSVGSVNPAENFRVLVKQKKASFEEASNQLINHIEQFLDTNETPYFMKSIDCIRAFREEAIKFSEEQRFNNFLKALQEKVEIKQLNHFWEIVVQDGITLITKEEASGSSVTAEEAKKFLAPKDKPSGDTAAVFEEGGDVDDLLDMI

One may read the IC50 as the concentration needed to halve the response being measured. In the case of `CC1=NN(c2cccc(C(=O)O)c2)C(=O)/C1=C\c1ccc(-c2ccc3c(c2)C(=O)OC3)o1` [compound 7997, reference compound], the half-maximal inhibitory concentration (IC50) under setting [1] was 32 µM and 16 µM and 40 µM.
On to `COc1cccc(NC(=O)c2cc(-c3ccc(/C=C4\C(=O)N(c5ccc(C(=O)O)cc5)N=C4C)s3)ccc2Cl)c1` [NG-03-236, (Z)-4-(4-((5-(4-Chloro-3-((3-methoxyphenyl)carbamoyl)phenyl)thiophen-2-yl)methylene)-3-methyl-5-oxo-4,5-dihydro-1H-pyrazol-1-yl)benzoic acid], for which, under setting [2], the half-maximal inhibitory concentration (IC50) came to 10 µM.
Take `CC1=NN(c2cccc(C(=O)O)c2)C(=O)/C1=C\c1ccc(-c2cc([N+](=O)[O-])ccc2O)o1` [compound 1564, reference compound]: the IC50 under setting [1] was 21 µM and 7 µM.
Regarding `CC1=NN(c2cccc(C(=O)O)c2)C(=O)/C1=C\c1ccc(-c2ccc(Cl)c(C(=O)O)c2)o1` [X80, (Z)-5-(5-((1-(3-Carboxyphenyl)-3-methyl-5-oxo-1H-pyrazol-4(5H)-ylidene)methyl)furan-2-yl)-2-chlorobenzoic acid], the half-maximal inhibitory concentration (IC50) (IC50 (concentration that inhibits 50% of the binding activity), titration into Ku-DNA binding reactions (FIG. 1, FIG. 2)) is roughly 75 µM.
Turning to `CC1=NN(c2cccc(C(=O)O)c2)C(=O)/C1=C\c1ccc(-c2ccc(Cl)c(C(=O)NCC3CC3)c2)s1` [NG-03-226, (Z)-3-(4-((5-(4-Chloro-3-((cyclopropylmethyl)carbamoyl)phenyl)thiophen-2-yl)methylene)-3-methyl-5-oxo-4,5-dihydro-1H-pyrazol-1-yl)benzoic acid], the IC50 under setting [2] is 7 µM.
Turning to `COC(=O)c1cccc(-c2ccc(/C=C3\C(=O)N(c4cccc(C(=O)O)c4)N=C3C(F)(F)F)o2)c1` [compound 2777, reference compound], the half-inhibitory concentration (IC50) under setting [1] was 40 µM and 16 µM.
Regarding `CCOC(=O)c1cccc(-c2ccc(/C=C3\C(=O)N(c4cccc(C(=O)O)c4)N=C3C)o2)c1` [compound 2714, reference compound], the IC50 under setting [1] was 9.1 µM.
The same measure, in the same setting: as for `CC1=NN(c2cccc(C(=O)O)c2)C(=O)/C1=C\c1ccc(-c2ccc(C(=O)O)cc2)o1` [compound 2513, reference compound], the figure is 150 µM; as for `CCOC(=O)c1cc(-c2ccc(/C=C3\C(=O)N(c4cccc(C(=O)O)c4)N=C3C)o2)ccc1Cl` [compound 2733, reference compound], 4.2 µM and 9 µM.
For the compound “(Z)-2-chloro-5-(54(1-(3-cyanophenyl)-3-methyl-5-oxo-1,5-dihydro-4H-pyrazol-4-ylidene)methyl)furan-2-yl)-N-(3-methoxyphenyl)benzamide [NG-03-193]”, the IC50 under setting [2] was determined as 25 µM.
Turning to `CC1=NN(c2cccc(C(=O)O)c2)C(=O)/C1=C\c1ccc(-c2cccc(C(=O)O)c2)o1` [compound 0803, reference compound], the IC50 under setting [1] turned out to be 65 µM.
Same read-out and setting: as for `CC1=NN(c2cccc(C(=O)O)c2)C(=O)/C1=C\c1ccc(-c2cc([N+](=O)[O-])ccc2C)o1` [compound 0302, reference compound], the figure is 13 µM and 7 µM and 9 µM.
Take `COc1cccc(NC(=O)c2cc(-c3ccc(/C=C4\C(=O)N(c5cccc(-c6nnn[nH]6)c5)N=C4C)o3)ccc2Cl)c1` [NG-03-201, (Z)-5-(5-((1-(3-(1H-Tetrazol-5-yl)phenyl)-3-methyl-5-oxo-1,5-dihydro-4H-pyrazol-4-ylidene)methyl)furan-2-yl)-2-chloro-N-(3-methoxyphenyl)benzamide]: the half-maximal inhibitory concentration (IC50) under setting [2] is 4.5 µM and 6.5 µM.
For `COc1cccc(NC(=O)c2cc(-c3ccc(/C=C4\C(=O)N(c5cccc(C(=O)O)c5)N=C4C)s3)ccc2Cl)c1` [NG-03-203, (Z)-3-(4-((5-(4-chloro-3-((3-methoxyphenyl)carbamoyl)phenyl)thiophen-2-yl)methylene)-3-methyl-5-oxo-4,5-dihydro-1H-pyrazol-1-yl)benzoic acid], under setting [2], the half-inhibitory concentration (IC50) came out at 18 µM.
Consider `CC1=NN(c2ccc(Cl)c(C(=O)O)c2)C(=O)/C1=C\c1ccc(-c2cccc(C(=O)OC(C)C)c2)o1` [compound 3315, reference compound], for which, under setting [1], the 50% inhibitory concentration (IC50) is 31 µM and 5.7 µM.

For the origin of these results see patent publication US11098033B2, “Ku inhibitors and their use” (INDIANA UNIVERSITY RESEARCH AND TECHNOLOGY CORPORATION, priority 2016, dated 2021).
